Experimental findings from publication PMC5537602, “TRPA1 channel mediates organophosphate-induced delayed neuropathy” (Cell Discovery, 2017) are described below.

The target in one series is T1, cTRPA1 (Gallus gallus, UniProt W8VTH6).
T1 sequence (W8VTH6 1-1126): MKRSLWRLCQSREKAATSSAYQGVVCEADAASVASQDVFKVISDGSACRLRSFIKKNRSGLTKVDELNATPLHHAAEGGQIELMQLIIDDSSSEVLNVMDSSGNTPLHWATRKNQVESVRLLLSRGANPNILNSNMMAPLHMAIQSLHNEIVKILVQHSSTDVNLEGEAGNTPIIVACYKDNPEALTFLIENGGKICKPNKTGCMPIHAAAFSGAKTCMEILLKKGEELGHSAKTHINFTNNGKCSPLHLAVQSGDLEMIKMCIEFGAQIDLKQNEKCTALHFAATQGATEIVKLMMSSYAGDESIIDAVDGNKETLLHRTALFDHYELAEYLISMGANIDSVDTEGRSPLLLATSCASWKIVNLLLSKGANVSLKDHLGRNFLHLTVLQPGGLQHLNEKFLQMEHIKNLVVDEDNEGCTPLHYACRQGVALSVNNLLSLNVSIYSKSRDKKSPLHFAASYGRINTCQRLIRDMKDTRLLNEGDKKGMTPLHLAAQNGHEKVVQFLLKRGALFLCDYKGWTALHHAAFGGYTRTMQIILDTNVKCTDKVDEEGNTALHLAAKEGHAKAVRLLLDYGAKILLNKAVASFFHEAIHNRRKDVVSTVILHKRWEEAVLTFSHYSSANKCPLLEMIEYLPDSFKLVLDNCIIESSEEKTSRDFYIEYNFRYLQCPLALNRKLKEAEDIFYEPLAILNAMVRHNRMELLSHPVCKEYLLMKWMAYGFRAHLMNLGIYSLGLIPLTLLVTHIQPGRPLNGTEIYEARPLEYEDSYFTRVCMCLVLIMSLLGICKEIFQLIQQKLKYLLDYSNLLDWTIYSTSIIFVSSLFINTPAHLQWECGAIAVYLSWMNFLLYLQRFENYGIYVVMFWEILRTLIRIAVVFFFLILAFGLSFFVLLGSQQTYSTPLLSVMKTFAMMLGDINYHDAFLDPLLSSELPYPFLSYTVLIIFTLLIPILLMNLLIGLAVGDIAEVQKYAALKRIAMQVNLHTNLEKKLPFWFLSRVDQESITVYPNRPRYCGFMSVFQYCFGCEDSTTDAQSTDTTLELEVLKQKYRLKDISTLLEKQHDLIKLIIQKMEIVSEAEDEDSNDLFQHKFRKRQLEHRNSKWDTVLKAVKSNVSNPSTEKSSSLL
Put plainly: Whole-cell patch-clamp, HEK293 cells expressing cTRPA1. Format: cell-based, chicken. As to the method: (§1) All cell culture reagents were purchased from Life Technologies. HEK293 cells were transfected transiently with the corresponding plasmids using lipofectamine 2000 (Life Technologies). Transfection efficiency was monitored by co-transfecting EGFP plasmid which codes for the enhanced green fluorescent protein. Electrophysiological recordings were performed between 24 and 36 h after transfection.
Whole-cell patch-clamp recordings in DRG neurons (small diameter, […]) and HEK293 cells were operated at room temperature (23–25 °C) using EPC-10 amplifier and Patch Master Software (HEKA). […] Currents were sampled at 10 kHz and low-pass filtered at 2.9 kHz. […] The calcium-free external solution contained (in mM) 140 NaCl, 5 KCl, 0.5 EGTA, 1 MgCl2, 10 Glucose and 10 HEPES, with pH adjusted to 7.4 by NaOH and osmolarity 300–310 mOsm. The 0.5 mM EGTA was replaced by 2 mM CaCl2 for the recordings in DRG neurons. TRPA1 currents development was monitored with repetitive injections of 300 ms duration voltage ramps from −100 to +100 mV every 2 s and the holding potential was set to 0 mV for 50 ms, existing in both sides of the voltage ramp. To record inward currents in DRG neurons, we conducted voltage clamp at holding membrane potential of −70 mV. Solutions were switched using a gravity-fed continuous focal perfusion system.

A further series has as its system mice. Put plainly: Transmission electron microscopy of local nerve fibers in mice. Format: in vivo, mouse. The procedure: For mice, subcutaneous tissue from the site of exposure was removed and fixed by immediate immersion in ice-cold 2.5% glutaraldehyde. Subsequently, the samples were post-fixed in 1% OsO4 for 1 h, dehydrated with an ethanol series and embedded in epon resin. Sixty-nanometer ultra-thin sections were double stained with lead citrate and uranyl acetate and examined using an electron microscopy.

A further series deals with mTRPA1 (Mus musculus, UniProt Q8BLA8). Put plainly: Whole-cell patch-clamp, HEK293 cells expressing mTRPA1. The class given is cell-based. Also noted: expressed in transfected cells; host or cells: HEK293. As to the method: as §1, with “Human embryonic kidney 293 (HEK293) cells were cultured in DMEM containing 10% (vol/vol) heat-inactivated fetal bovine serum, 100 units ml^−1 penicillin–streptomycin and 2 mM L-glutamine at 37 °C in a humidity-controlled sterile incubator with 5% CO2. All” for “All”
Whole-cell patch-clamp recordings in DRG neurons (small diameter, […]) and HEK293 cells were operated at room temperature (23–25 °C) using EPC-10 amplifier and Patch Master Software (HEKA). […] Currents were sampled at 10 kHz and low-pass filtered at 2.9 kHz. The internal solution was as follows (in mM): 140 CsCl, 10 HEPES, 5 EGTA, 0.1 CaCl2 and 1 MgCl2, with pH adjusted to 7.2 by CsOH and osmolarity 295–300 mOsm. The calcium-free external solution contained (in mM) 140 NaCl, 5 KCl, 0.5 EGTA, 1 MgCl2, 10 Glucose and 10 HEPES, with pH adjusted to 7.4 by NaOH and osmolarity 300–310 mOsm. The 0.5 mM EGTA was replaced by 2 mM CaCl2 for the recordings in DRG neurons. TRPA1 currents development was monitored with repetitive injections of 300 ms duration voltage ramps from −100 to +100 mV every 2 s and the holding potential was set to 0 mV for 50 ms, existing in both sides of the voltage ramp. To record inward currents in DRG neurons, we conducted voltage clamp at holding membrane potential of −70 mV. Solutions were switched using a gravity-fed continuous focal perfusion system.

Usually EC50 stands for the concentration giving half of the maximal effect. Lower therefore signals greater potency.

mTRPA1, sequence (Q8BLA8 whole entry): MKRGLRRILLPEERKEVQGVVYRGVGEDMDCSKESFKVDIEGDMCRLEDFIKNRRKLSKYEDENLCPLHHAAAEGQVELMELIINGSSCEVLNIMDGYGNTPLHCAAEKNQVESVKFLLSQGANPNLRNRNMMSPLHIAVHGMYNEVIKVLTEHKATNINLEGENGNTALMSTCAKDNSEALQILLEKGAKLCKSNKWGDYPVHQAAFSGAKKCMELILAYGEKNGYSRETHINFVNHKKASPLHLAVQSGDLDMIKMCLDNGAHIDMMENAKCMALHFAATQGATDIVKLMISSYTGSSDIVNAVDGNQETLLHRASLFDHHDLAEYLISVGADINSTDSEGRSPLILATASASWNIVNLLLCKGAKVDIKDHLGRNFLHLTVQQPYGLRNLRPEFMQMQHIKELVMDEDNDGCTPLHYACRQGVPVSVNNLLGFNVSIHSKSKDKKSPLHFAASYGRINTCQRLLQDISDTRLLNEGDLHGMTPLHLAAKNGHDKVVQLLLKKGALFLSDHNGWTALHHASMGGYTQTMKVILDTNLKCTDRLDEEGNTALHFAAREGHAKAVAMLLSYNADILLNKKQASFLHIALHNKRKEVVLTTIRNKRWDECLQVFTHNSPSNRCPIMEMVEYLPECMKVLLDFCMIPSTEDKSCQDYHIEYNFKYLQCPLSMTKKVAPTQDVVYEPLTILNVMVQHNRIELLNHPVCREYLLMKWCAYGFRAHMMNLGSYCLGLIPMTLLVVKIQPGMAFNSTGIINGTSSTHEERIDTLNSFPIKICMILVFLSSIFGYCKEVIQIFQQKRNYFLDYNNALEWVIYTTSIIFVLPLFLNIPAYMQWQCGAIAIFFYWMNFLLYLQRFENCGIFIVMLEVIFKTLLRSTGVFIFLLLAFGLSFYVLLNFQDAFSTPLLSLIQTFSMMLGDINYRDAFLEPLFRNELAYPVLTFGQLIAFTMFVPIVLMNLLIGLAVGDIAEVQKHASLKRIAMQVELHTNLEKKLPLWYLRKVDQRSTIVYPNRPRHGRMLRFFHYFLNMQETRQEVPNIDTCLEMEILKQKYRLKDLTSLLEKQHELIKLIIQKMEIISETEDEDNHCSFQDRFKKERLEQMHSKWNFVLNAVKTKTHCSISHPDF

As to `CC(C)c1ccc(NC(=O)Cn2cnc3c2c(=O)n(C)c(=O)n3C)cc1` [HC030031], the “block of malathion-elicited cTRPA1 currents” value at cTRPA1 (10 μM HC030031) is listed as “blocked”. Also, the “effect on malathion-induced myelin sheath damage (TEM)” value in the series on mice (HC030031 pretreatment) is on record as “significantly protected the myelin sheath”. The “block of agonist-elicited mTRPA1 currents” value on mTRPA1 (10 μM HC030031, malathion or TOCP as agonist) is given as “blocked”.

In the case of `CCOC(=O)CC(SP(=S)(OC)OC)C(=O)OCC` (stereo not drawn) [malathion, S-[1,2-bis (ethoxycarbonyl)ethyl] O, O-dimethyl phosphorodithioate], the EC50 on cTRPA1 was found to be 10.8 ± 1.68 µM. The “activation of cTRPA1 whole-cell currents” value on cTRPA1 (calcium-free external solution) is reported as “large activation current”. In the series on mice (WT mice, plantar injection, 5% AITC or 30% malathion), the “nerve fiber damage around the injection site (TEM)” value was “damage of the myelin sheath”. In addition, the “activation of mTRPA1 whole-cell currents” value at mTRPA1 (30 μM, calcium-free external solution) is on record as “large activation current”.
